In patent US20250064758A1 (priority 2023, published 2025):

Legend:
[1] = tested on: MERS-COV; assay type: cell-based; settings: plaque assay
[2] = tested on: SARS-COV; assay type: cell-based; settings: plaque assay, 24 hpi
[3] = tested on: WT SARS-COV-2; experiment: Golden Syrian hamster model of WT SARS-COV-2 infection; assay type: in vivo; settings: 4 dpi
[4] = tested on: plasma proteins; settings: over a wide range of blood concentrations; cited from earlier work
[5] = in vivo; cited from earlier work
[6] = tested on: SARS-COV-2; settings: hES-CMs, 0.1 MOI, 24 hpi, 50 uM Propranolol

For `CC(C)NCC(O)COc1cccc2ccccc12` (stereo not drawn) [Propranolol, 1-(isopropylamino)-3-(1-naphthyloxy)-2-propanol], the “number of infectious viruses (viral plaques)” value [1] was “effectively reduced”, the “number of infectious viruses (viral plaques)” value [2] was “effectively reduced” and the “viral nucleocapsid protein expression in bronchiolar and alveolar epithelia” value ([3]; hamster lung, immunofluorescence staining) was “significantly reduced”. For the same molecule, the “WT SARS-COV-2 genome copies in lung tissues” value ([3]; hamster, 40 mg/kg intraperitoneal from 6 hpi, 4 doses, RT-qPCR, vs mock-treated, p<0.05) was “decreased”, the “infectious virus titer in lung tissues” value ([3]; hamster, 40 mg/kg intraperitoneal from 6 hpi, 4 doses, plaque assay, vs mock-treated, p<0.01) was “decreased” and the “bound to plasma proteins” value [4] was “more than 90%”. The elimination half-life [5] was “approximately 8 hours”, the “intracellular SARS-COV-2 viral load” value ([6]; cell lysate) was “remarkably diminished” and the “extracellular SARS-COV-2 viral load” value ([6]; cell supernatant) was “remarkably diminished”.
